Columns and labels:
[1] = molecular target: T1, calpain I (Homo sapiens, UniProt P07384); test: Lactacystin activity on purified calpain, LLVY-aminoluciferin luminescence; format: biochemical; conditions: 0.5 hour preincubation, calcium present (FIG. 2A)
T1 sequence (P07384 1-714): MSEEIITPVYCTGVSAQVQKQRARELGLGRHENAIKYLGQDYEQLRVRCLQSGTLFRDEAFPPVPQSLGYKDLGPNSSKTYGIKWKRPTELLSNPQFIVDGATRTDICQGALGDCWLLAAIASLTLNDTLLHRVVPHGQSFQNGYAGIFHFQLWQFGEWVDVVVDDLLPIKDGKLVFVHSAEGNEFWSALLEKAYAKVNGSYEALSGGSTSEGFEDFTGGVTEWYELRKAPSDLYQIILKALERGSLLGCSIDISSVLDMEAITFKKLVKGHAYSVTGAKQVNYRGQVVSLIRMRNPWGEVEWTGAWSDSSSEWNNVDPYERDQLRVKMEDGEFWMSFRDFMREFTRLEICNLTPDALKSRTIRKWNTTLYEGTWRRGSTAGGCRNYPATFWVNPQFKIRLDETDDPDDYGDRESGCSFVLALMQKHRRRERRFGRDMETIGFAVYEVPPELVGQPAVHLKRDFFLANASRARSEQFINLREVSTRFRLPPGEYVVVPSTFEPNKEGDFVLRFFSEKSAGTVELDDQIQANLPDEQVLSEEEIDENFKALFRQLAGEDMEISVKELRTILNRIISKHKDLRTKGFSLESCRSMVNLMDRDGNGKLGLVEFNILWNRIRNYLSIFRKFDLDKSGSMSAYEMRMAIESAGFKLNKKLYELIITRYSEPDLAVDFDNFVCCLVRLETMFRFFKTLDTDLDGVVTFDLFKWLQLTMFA
T1 sequence (P04632 1-268 partner): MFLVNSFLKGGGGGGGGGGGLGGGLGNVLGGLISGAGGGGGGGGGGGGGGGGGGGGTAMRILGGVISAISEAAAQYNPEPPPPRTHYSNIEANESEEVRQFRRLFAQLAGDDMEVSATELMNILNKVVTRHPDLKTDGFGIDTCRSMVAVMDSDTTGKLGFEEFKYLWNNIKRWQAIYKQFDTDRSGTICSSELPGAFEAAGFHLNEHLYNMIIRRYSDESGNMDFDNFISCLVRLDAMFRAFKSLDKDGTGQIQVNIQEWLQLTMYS
Experimental: (§1) After a 0.5 hour preincubation in 25 mM HEPES/0.5 mM EDTA/1 mM DTT, a 2×reagent was added (20 μM LLVY-aminoluciferin (SEQ ID NO:1)/3 mM CaCL2/10 mM MgSO4).

[2] = molecular target: proteasomes (Homo sapiens, UniProt P28074); test: Lactacystin activity on proteasomes, LLVY-aminoluciferin luminescence with DTT; format: biochemical; conditions: at 20 μM, with DTT included (FIG. 2A)
Experimental: as §1

[3] = test system: HL-60 cells; test: ATP content (viability), CellTiter-Glo; format: cell-based; conditions: 1.5 hours treatment, concentrations tested
Excerpt: (§2) Cell viability measurements were made using CellTiter Glo (Promega Corp.) in a parallel series of samples to confirm that viability was not affected by lactacystin treatment.

[4] = test system: U937 cells; test: ATP content (viability), CellTiter-Glo; format: cell-based; conditions: 1.5 hours treatment, concentrations tested
Excerpt: as §2

[5] = test system: proteasome activities in Jurkat cells; test: Cell-based luminescent proteasome assay in Jurkat cells; conditions: 1.5 hours inhibitor exposure
Experimental: FIG. 3. Luminescence versus proteasome inhibitor concentration in Jurkat cells. Jurkatt cells were exposed to inhibitor (AdaAhxL3VS) for 1.5 hours and then contacted with LLVY-aminoluciferin (final concentration of 10 μM; SEQ ID NO:1).
NCI-H226 cells (ATCC #CRL-5826) were maintained as an attached line using RPMI 1640 (Sigma #R-8005) with 10% fetal bovine serum (Hyclone # SH30070) and passaged as needed. Jurkat, HL-60 and U937 suspension cell lines were likewise maintained and passaged. To prepare cells for a cell-based proteasome assay, adherent cells were harvested from the parent flask by removing medium, rinsing the flask with D-PBS and incubated with trypsin-EDTA (Sigma T-4040) for 3 to 4 minutes at 37° C. The trypsin reaction was stopped by adding complete medium containing serum, and cells were then centrifuged 4 minutes at 200×G. The cell pellet was suspended in fresh medium, cells counted by trypan blue exclusion and adjusted to 1.11×10^5 cells/ml. […]
For instance, one vial of V859A (Luciferin Detection Reagent) is suspended with 10 ml of buffer to which 50 to 100 μl of substrate is added, and 100 μl of cells are combined with 100 μl of substrate containing reagent. […] This pre-incubation depletes the free aminoluciferin present in the substrate, thereby reducing potential background luminescence. […]

[6] = test system: U266 cells; test: Toxicity of proteasome inhibitor incubation to cells; format: cell-based

| Compound | effect on calpain I [1] | inhibition of the proteasome [2] | cell viability (ATP assay, CellTiterGlo) [3] | cell viability (ATP assay, CellTiterGlo) [4] | chymotrypsin-like, trypsin-like and caspase-like proteasome activities [5] | toxicity to the cells, short incubations ([6]; incubation for 1 to 2 hours) | toxicity to the cells, longer incubation times ([6]; longer incubation times) |
| --- | --- | --- | --- | --- | --- | --- | --- |
| CC(=O)N[C@@H](CSC(=O)[C@]1([C@@H](O)C(C)C)NC(=O)[C@H](C)[C@@H]1O)C(=O)O [lactacystin] | minimal effect | incomplete inhibition | did not kill the cells | did not kill the cells | – | – | – |
| CC(C)CC(C=CS(C)(=O)=O)NC(=O)[C@H](CC(C)C)NC(=O)[C@H](CC(C)C)NC(=O)CCCCCNC(=O)CCCCCNC(=O)CCCCCNC(=O)CC12CC3CC(CC(C3)C1)C2 (stereo partly shown) [AdaAhx3L3VS, adamantane-acetyl-(6-aminohexanoyl)3-(leucinyl)3-vinyl-(methyl)-sulfone] | – | – | – | – | blocked all three activities | not toxic | induced apoptosis |

— patent publication US20070048812A1, “Cell-based luminogenic and nonluminogenic proteasome assays” (priority 2005, published 2007)
